Laboratory results published in the NIST ThermoML archive (doi:10.1016/j.jct.2010.11.017).
± gives the expanded uncertainty stated by the source.

Experiment: mn = molality of the nth substance listed, in mol/kg
Details: 101 kPa, Liquid; for viscosity: Capillary tube (Ostwald / Ubbelohde) method; for speed of sound: Frequency=3 MHz, Linear variable-path acoustic interferometer; for mass density: Pycnometric method

N[C@@H](Cc1c[nH]cn1)C(=O)O [L-histidine] + O
viscosity (293.15 K, m1 = 0.0199): 1.014 ± 0.1 mPa·s
viscosity (293.15 K, m1 = 0.0399): 1.024 ± 0.1 mPa·s
viscosity (293.15 K, m1 = 0.0599): 1.035 ± 0.1 mPa·s
viscosity (293.15 K, m1 = 0.0799): 1.045 ± 0.1 mPa·s
viscosity (293.15 K, m1 = 0.1): 1.056 ± 0.11 mPa·s
viscosity (293.15 K, m1 = 0.1199): 1.066 ± 0.11 mPa·s
viscosity (293.15 K, m1 = 0.14): 1.077 ± 0.11 mPa·s
viscosity (293.15 K, m1 = 0.16): 1.087 ± 0.11 mPa·s
speed of sound (293.15 K, m1 = 0.0199): 1488.1 ± 10 m/s
speed of sound (293.15 K, m1 = 0.0399): 1491.8 ± 10 m/s
speed of sound (293.15 K, m1 = 0.0599): 1494.5 ± 10 m/s
speed of sound (293.15 K, m1 = 0.0799): 1496.5 ± 10 m/s
speed of sound (293.15 K, m1 = 0.1): 1497.4 ± 10 m/s
speed of sound (293.15 K, m1 = 0.1199): 1497.5 ± 10 m/s
speed of sound (293.15 K, m1 = 0.14): 1496.5 ± 10 m/s
speed of sound (293.15 K, m1 = 0.16): 1494.8 ± 10 m/s
mass density (293.15 K, m1 = 0.0199): 999.39 ± 6 kg/m3
mass density (293.15 K, m1 = 0.0399): 1000.54 ± 6 kg/m3
mass density (293.15 K, m1 = 0.0599): 1001.69 ± 6 kg/m3
mass density (293.15 K, m1 = 0.0799): 1002.84 ± 6 kg/m3
mass density (293.15 K, m1 = 0.1): 1003.99 ± 6 kg/m3
mass density (293.15 K, m1 = 0.1199): 1005.14 ± 6 kg/m3
mass density (293.15 K, m1 = 0.14): 1006.29 ± 6 kg/m3
mass density (293.15 K, m1 = 0.16): 1007.44 ± 6 kg/m3
viscosity (298.15 K, m1 = 0.0199): 0.9001 ± 0.09 mPa·s
viscosity (298.15 K, m1 = 0.0399): 0.9083 ± 0.091 mPa·s
viscosity (298.15 K, m1 = 0.0599): 0.9164 ± 0.092 mPa·s
viscosity (298.15 K, m1 = 0.0799): 0.925 ± 0.093 mPa·s
viscosity (298.15 K, m1 = 0.1): 0.933 ± 0.094 mPa·s
viscosity (298.15 K, m1 = 0.1199): 0.9411 ± 0.094 mPa·s
viscosity (298.15 K, m1 = 0.14): 0.95 ± 0.095 mPa·s
viscosity (298.15 K, m1 = 0.16): 0.9583 ± 0.096 mPa·s
speed of sound (298.15 K, m1 = 0.0199): 1501.1 ± 10 m/s
speed of sound (298.15 K, m1 = 0.0399): 1504.4 ± 10 m/s
speed of sound (298.15 K, m1 = 0.0599): 1506.8 ± 10 m/s
speed of sound (298.15 K, m1 = 0.0799): 1508.1 ± 10 m/s
speed of sound (298.15 K, m1 = 0.1): 1508.6 ± 10 m/s
speed of sound (298.15 K, m1 = 0.1199): 1507.9 ± 10 m/s
speed of sound (298.15 K, m1 = 0.14): 1506.5 ± 10 m/s
speed of sound (298.15 K, m1 = 0.16): 1504.2 ± 10 m/s
mass density (298.15 K, m1 = 0.0199): 998.22 ± 6 kg/m3
mass density (298.15 K, m1 = 0.0399): 999.37 ± 6 kg/m3
mass density (298.15 K, m1 = 0.0599): 1000.52 ± 6 kg/m3
mass density (298.15 K, m1 = 0.0799): 1001.68 ± 6 kg/m3
mass density (298.15 K, m1 = 0.1): 1002.83 ± 6 kg/m3
mass density (298.15 K, m1 = 0.1199): 1003.98 ± 6 kg/m3
mass density (298.15 K, m1 = 0.14): 1005.13 ± 6 kg/m3
mass density (298.15 K, m1 = 0.16): 1006.28 ± 6 kg/m3
viscosity (303.15 K, m1 = 0.0199): 0.8052 ± 0.081 mPa·s
viscosity (303.15 K, m1 = 0.0399): 0.8119 ± 0.081 mPa·s
viscosity (303.15 K, m1 = 0.0599): 0.8187 ± 0.082 mPa·s
viscosity (303.15 K, m1 = 0.0799): 0.8256 ± 0.083 mPa·s
viscosity (303.15 K, m1 = 0.1): 0.8318 ± 0.083 mPa·s
viscosity (303.15 K, m1 = 0.1199): 0.8383 ± 0.084 mPa·s
viscosity (303.15 K, m1 = 0.14): 0.8451 ± 0.085 mPa·s
viscosity (303.15 K, m1 = 0.16): 0.8513 ± 0.085 mPa·s
speed of sound (303.15 K, m1 = 0.0199): 1512.3 ± 10 m/s
speed of sound (303.15 K, m1 = 0.0399): 1515.1 ± 10 m/s
speed of sound (303.15 K, m1 = 0.0599): 1517 ± 10 m/s
speed of sound (303.15 K, m1 = 0.0799): 1517.7 ± 10 m/s
speed of sound (303.15 K, m1 = 0.1): 1518 ± 10 m/s
speed of sound (303.15 K, m1 = 0.1199): 1516.4 ± 10 m/s
speed of sound (303.15 K, m1 = 0.14): 1514.2 ± 10 m/s
speed of sound (303.15 K, m1 = 0.16): 1511.5 ± 10 m/s
mass density (303.15 K, m1 = 0.0199): 996.83 ± 6 kg/m3
mass density (303.15 K, m1 = 0.0399): 997.99 ± 6 kg/m3
mass density (303.15 K, m1 = 0.0599): 999.14 ± 6 kg/m3
mass density (303.15 K, m1 = 0.0799): 1000.3 ± 6 kg/m3
mass density (303.15 K, m1 = 0.1): 1001.46 ± 6 kg/m3
mass density (303.15 K, m1 = 0.1199): 1002.61 ± 6 kg/m3
mass density (303.15 K, m1 = 0.14): 1003.76 ± 6 kg/m3
mass density (303.15 K, m1 = 0.16): 1004.91 ± 6 kg/m3
